Patent US20100209345A1, “Fluorinated Ligands for Targeting Peripheral Benzodiazepine Receptors” (Australian Nuclear Science & Technology Organisation, priority 2006, published 2010)

Tests used:
[1] = Biodistribution of 18F-labelled tracers in rats; assay type: in vivo
Method: [^18F]Fluoride, in the form of H^18F, was produced by the ^18O(p,n)^18F nuclear reaction by bombardment of ^18O-enriched water target. The aqueous [^18F]fluoride solution was added to a 2.5-mL wheaton vial containing dry acetonitrile (1 mL), Kryptofix 2.2.2 (5 mg, 13.3 μmol) and potassium carbonate (2 mg, 14.5 μmol). The solvent was evaporated under a stream of nitrogen at 90° C. with a reducing vacuum. This azeotropic drying was repeated twice by further addition of acetonitrile (2×1 mL). The tosylate precursor 2-(2-(4-(2-tosylethoxy)phenyl)-6-chloroimidazo[1,2-a]pyridin-3-yl)-N,N-diethylacetamide (2 mg, 3.6 μmol) was dissolved in acetonitrile (1 ml) and added to the dried K222.K2CO3.KF complex. Stirring and heating at 90° C. continued for 10 to 15 mins before the reaction mixture was diluted with mobile phase and purified by reverse phase HPLC on an Alltech Alltima, C18, 10μ, 250×22 mm column eluting at 10 mLs/min with 45% acetonitrile, 55% water with 0.1% TFA.
(§1) The biodistribution of PBR132* was undertaken in SD rats and analysis up to 4 h p.i. in the brain and peripheral tissues was performed. The specificity and selectivity of the tracer were assessed by pre-treatment with PBR and Central benzodiazepine receptor (CBR) specific ligands (1 mg/kg) 5 min prior to injection of PBR132*.
(§2) The biodistribution of PBR 147* was performed in SD rats and brain and peripheral tissues were analysised at 15, 30 min, 1, and 4 h p.i. The specificity and selectivity of the tracer was assessed by pre-treatment of the animals with the PBR ligands PK11195 and Ro 5-4864 and with Flumazenil for CBR at 1 mg/kg 5 min prior to injection of PBR 147*
(§3) The biodistribution of PBR102* and PBR111* were performed in SD rats and brain and peripheral tissues analysed at 15, 30 min, 1, and 4 h p.i. The specificity and selectivity of the tracers were assessed by pre-treatment with the PBR ligands PK11195 and Ro 5-4864 and with Flumazenil for CBR at 1 mg/kg 5 min prior to injection of the corresponding tracers.
(§4) The specificity and selectivity of the tracers were assessed by pre-treatment with the PBR ligands PK11195 and Ro 5-4864 and with Flumazenil for CBR at 1 mg/kg 5 min prior to injection of the corresponding tracers.

[2] = biological target: T1, peripheral benzodiazepine receptors (Rattus norvegicus, UniProt P16257); experiment: In vivo blocking / competition of tracer uptake by pre-treatment with PBR and CBR ligands; conditions: rats
T1 construct: high uptake in the tissues which have known PBR sites; from tissue; host or cells: organs of living SD rats (brain and peripheral tissues), in vivo
Method: The criteria for significance were **p<0.01 (highly significant) and *p<0.05 (significant). No stars implies not statistical difference from normals or controls.
as §1, §2, §3, §4

[3] = SD rats, 15 min, decay correction not stated
[4] = SD rats, 4 hours, decay correction not stated
[5] = rats, 15 min, corrected for decay of 18F
[6] = rats, 30 min, corrected for decay of 18F
[7] = rats, 60 min, corrected for decay of 18F
[8] = rats, 4 hours, corrected for decay of 18F

For `CCN(CC)C(=O)Cc1c(-c2ccc(OCCCF)cc2)nn2c(C)cc(C)nc12` [PBR146*], the “Biodistribution: Blood” value [1, 3] was 0.4 % ID/g, the “Biodistribution: Bone” value [1, 3] was 1.0 % ID/g and the “Biodistribution: Kidney” value [1, 3] was 5.5 % ID/g. For the same molecule, the “Biodistribution: Olfactory bulbs” value [1, 3] was 0.41 % ID/g, the “Biodistribution: Adrenals” value ([1]; SD rats, 30 min, decay correction not stated) was 7.9 % ID/g and the “Biodistribution: Adrenals” value [1, 4] was 12.2 % ID/g. The “Biodistribution: Blood” value [1, 4] was 0.1 % ID/g, the “Biodistribution: Bone” value [1, 4] was 5.0 % ID/g and the “Biodistribution: Kidney” value [1, 4] was 3.2 % ID/g. The “Biodistribution: Olfactory bulbs” value [1, 4] was 0.31 % ID/g, the “Biodistribution: Adrenals” value [1, 5] was 8.05 ± 0.66 % ID/g and the “Biodistribution: Bladder” value [1, 5] was 0.63 ± 0.14 % ID/g. For the same molecule, the “Biodistribution: Blood” value [1, 5] was 0.38 ± 0.08 % ID/g, the “Biodistribution: Bone” value [1, 5] was 1.06 ± 0.17 % ID/g and the “Biodistribution: Brain” value [1, 5] was 0.27 ± 0.03 % ID/g. For the same molecule, the “Biodistribution: Heart” value [1, 5] was 8.99 ± 0.69 % ID/g, the “Biodistribution: Kidney” value [1, 5] was 5.53 ± 1.20 % ID/g and the “Biodistribution: Liver” value [1, 5] was 1.08 ± 0.05 % ID/g. For the same molecule, the “Biodistribution: Lungs” value [1, 5] was 20.42 ± 4.32 % ID/g, the “Biodistribution: Muscle” value [1, 5] was 1.10 ± 0.15 % ID/g and the “Biodistribution: Olfactory bulbs” value [1, 5] was 0.41 ± 0.10 % ID/g. The “Biodistribution: Pancreas” value [1, 5] was 2.20 ± 0.68 % ID/g, the “Biodistribution: Skin” value [1, 5] was 0.53 ± 0.11 % ID/g and the “Biodistribution: Spleen” value [1, 5] was 5.49 ± 0.90 % ID/g. For the same molecule, the “Biodistribution: Stomach” value [1, 5] was 0.69 ± 0.12 % ID/g, the “Biodistribution: Testes” value [1, 5] was 0.269 ± 0.022 % ID/g and the “Biodistribution: Thymus” value [1, 5] was 0.80 ± 0.07 % ID/g. For the same molecule, the “Biodistribution: Thyroid” value [1, 5] was 7.71 ± 2.92 % ID/g, the “Biodistribution: Adrenals” value [1, 6] was 7.94 ± 1.52 % ID/g and the “Biodistribution: Bladder” value [1, 6] was 0.71 ± 0.22 % ID/g. For the same molecule, the “Biodistribution: Blood” value [1, 6] was 0.26 ± 0.03 % ID/g, the “Biodistribution: Bone” value [1, 6] was 1.46 ± 0.27 % ID/g and the “Biodistribution: Brain” value [1, 6] was 0.15 ± 0.02 % ID/g. The “Biodistribution: GIT” value [1, 6] was 1.25 ± 0.09 % ID/g, the “Biodistribution: Heart” value [1, 6] was 9.05 ± 0.51 % ID/g and the “Biodistribution: Kidney” value [1, 6] was 4.91 ± 0.21 % ID/g. The “Biodistribution: Liver” value [1, 6] was 0.98 ± 0.21 % ID/g, the “Biodistribution: Lungs” value [1, 6] was 12.36 ± 1.28 % ID/g and the “Biodistribution: Muscle” value [1, 6] was 0.82 ± 0.13 % ID/g. The “Biodistribution: Olfactory bulbs” value [1, 6] was 0.45 ± 0.07 % ID/g, the “Biodistribution: Pancreas” value [1, 6] was 1.59 ± 0.10 % ID/g and the “Biodistribution: Skin” value [1, 6] was 0.55 ± 0.05 % ID/g. The “Biodistribution: Spleen” value [1, 6] was 5.53 ± 0.36 % ID/g, the “Biodistribution: Stomach” value [1, 6] was 1.03 ± 0.16 % ID/g and the “Biodistribution: Testes” value [1, 6] was 0.285 ± 0.024 % ID/g. The “Biodistribution: Thymus” value [1, 6] was 0.84 ± 0.11 % ID/g, the “Biodistribution: Thyroid” value [1, 6] was 7.69 ± 2.21 % ID/g and the “Biodistribution: Adrenals” value [1, 7] was 11.02 ± 1.88 % ID/g. The “Biodistribution: Bladder” value [1, 7] was 0.89 ± 0.25 % ID/g, the “Biodistribution: Blood” value [1, 7] was 0.18 ± 0.02 % ID/g and the “Biodistribution: Bone” value [1, 7] was 2.07 ± 0.27 % ID/g. For the same molecule, the “Biodistribution: Brain” value [1, 7] was 0.12 ± 0.01 % ID/g, the “Biodistribution: GIT” value [1, 7] was 1.51 ± 0.21 % ID/g and the “Biodistribution: Heart” value [1, 7] was 8.57 ± 1.01 % ID/g. The “Biodistribution: Kidney” value [1, 7] was 4.70 ± 0.24 % ID/g, the “Biodistribution: Liver” value [1, 7] was 0.69 ± 0.26 % ID/g and the “Biodistribution: Lungs” value [1, 7] was 7.12 ± 0.95 % ID/g. For the same molecule, the “Biodistribution: Muscle” value [1, 7] was 0.67 ± 0.04 % ID/g, the “Biodistribution: Olfactory bulbs” value [1, 7] was 0.25 ± 0.06 % ID/g and the “Biodistribution: Pancreas” value [1, 7] was 1.41 ± 0.22 % ID/g. The “Biodistribution: Skin” value [1, 7] was 0.67 ± 0.06 % ID/g, the “Biodistribution: Spleen” value [1, 7] was 5.14 ± 0.38 % ID/g and the “Biodistribution: Stomach” value [1, 7] was 1.27 ± 0.45 % ID/g. For the same molecule, the “Biodistribution: Testes” value [1, 7] was 0.319 ± 0.028 % ID/g, the “Biodistribution: Thymus” value [1, 7] was 0.96 ± 0.17 % ID/g and the “Biodistribution: Thyroid” value [1, 7] was 13.37 ± 0.46 % ID/g. The “Biodistribution: Adrenals” value [1, 8] was 12.21 ± 1.56 % ID/g, the “Biodistribution: Bladder” value [1, 8] was 1.26 ± 0.16 % ID/g and the “Biodistribution: Blood” value [1, 8] was 0.10 ± 0.01 % ID/g. For the same molecule, the “Biodistribution: Bone” value [1, 8] was 4.12 ± 0.23 % ID/g, the “Biodistribution: Brain” value [1, 8] was 0.08 ± 0.01 % ID/g and the “Biodistribution: GIT” value [1, 8] was 1.54 ± 0.11 % ID/g. For the same molecule, the “Biodistribution: Heart” value [1, 8] was 5.76 ± 0.92 % ID/g, the “Biodistribution: Kidney” value [1, 8] was 3.23 ± 0.26 % ID/g and the “Biodistribution: Liver” value [1, 8] was 0.38 ± 0.09 % ID/g. The “Biodistribution: Lungs” value [1, 8] was 3.25 ± 0.21 % ID/g, the “Biodistribution: Muscle” value [1, 8] was 0.31 ± 0.06 % ID/g and the “Biodistribution: Olfactory bulbs” value [1, 8] was 0.31 ± 0.08 % ID/g. For the same molecule, the “Biodistribution: Pancreas” value [1, 8] was 0.77 ± 0.16 % ID/g, the “Biodistribution: Skin” value [1, 8] was 0.71 ± 0.07 % ID/g and the “Biodistribution: Spleen” value [1, 8] was 3.61 ± 0.19 % ID/g. For the same molecule, the “Biodistribution: Stomach” value [1, 8] was 0.34 ± 0.04 % ID/g, the “Biodistribution: Testes” value [1, 8] was 0.426 ± 0.043 % ID/g and the “Biodistribution: Thymus” value [1, 8] was 1.35 ± 0.15 % ID/g. For the same molecule, the “Biodistribution: Thyroid” value [1, 8] was 10.68 ± 1.44 % ID/g.

With `CN(C(=O)Cc1c(-c2ccc(OCCC[18F])cc2)nc2c(Cl)cc(Cl)cn12)c1ccccc1` [PBR147*, 2-(2-(4-(3-fluoropropoxy)phenyl)-6,8-dichloroimidazo[1,2-a]pyridin-3-yl)-N-methyl-N-phenylacetamide] the “Tracer uptake after pre-treatment with PK 11195” value ([2]; PK 11195 1 mg/kg 5 min prior to tracer, PBR-expressing tissues (brain/peripheral organs, adrenals apart)) was “blocking effect”, the “Tracer uptake after pre-treatment with Ro 5-4864” value ([2]; Ro 5-4864 1 mg/kg 5 min prior to tracer, PBR-expressing tissues (brain/peripheral organs, adrenals apart)) was “blocking effect” and the “Tracer uptake after pre-treatment with flumazenil (central benzodiazepine ligand)” value ([2]; flumazenil 1 mg/kg 5 min prior to tracer, brain or peripheral organs) was “does not reduce”. For the same molecule, the “Tracer uptake after pre-treatment with the non-radioactive analogue” value ([2]; non-radioactive analogue 1 mg/kg, PBR-expressing tissues) was “blocking effect”.
